# Laboratory results from PMC3836680 (Amino acids, 2011).
# Target: S. pyogenes P5C reductase (Streptococcus pyogenes, UniProt Q9A1S9)
# Assay: P5C reductase inhibition assay
# Type: biochemical
# Settings: read-out: Enzyme inhibition at 0.2 mM
smiles,measurement,value
"NC(P(=O)(O)O)P(=O)(O)O [Compound 01, aminomethylenebisphosphonic acid]",inhibition at 200 µM,3 ± 2.1%
